Reference: patent publication US20240277658A1, “NLRP3 ACTIVATORS FOR USE IN THE TREATMENT OF INFECTIOUS DISEASES OR CANCER BY ACTIVATING NLRP3 INFLAMMASOME” (ALBERT-LUDWIGS-UNIVERSITÄT FREIBURG, priority 2020, published 2024)
Where two headings read alike, the source gives them in different places.

Tested on: BMDCs
Assay: LDH release (lytic cell death, pyroptosis) from LPS-primed BMDCs
Format: cell-based, mouse
Conditions: for Average (% positive control): LDH release; for cytotoxicity at 10 µM / cytotoxicity at 20 µM / cytotoxicity at 25 µM / cytotoxicity at 50 µM / cytotoxicity at 18.75 µM: Mus musculus, BMDC; for cytotoxicity at 50 µM: LPS-primed BMDCs
Outline: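 Mouse BMDCs (7-9 days differentiated, GM-CSF) primed with 50 ng ml^−1 E. coli K12 LPS for 3 hours, then exposed 3 hours to compounds (50 μM unless indicated) or activators (nigericin 5 μM; R837, CL097 100 μM). Lytic death measured as LDH release by colorimetric assay, triplicate wells.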

O=C(Nc1ccccc1)Nc1ccc2ncccc2c1 [EN22, 1-phenyl-3-(quinolin-6-yl)urea]
Average (% positive control) (10 μM, positive control EN22 10 μM): 100.000 % positive control | Average (% positive control) (20 μM, positive control EN22 20 μM): 100.000 % positive control | Average (% positive control) (25 μM, positive control EN22 25 μM): 100.000 % positive control | Average (% positive control) (compound 50 μM, positive control nigericin 5 μM): 95.180 % positive control | cytotoxicity at 10 µM (10 μM, individual replicate values, read-out: LDH release (% of max.)): 78.1% | cytotoxicity at 10 µM (10 μM, read-out: Average LDH release (% of max.)): 76.8% | cytotoxicity at 20 µM (20 μM, individual replicate values, read-out: LDH release (% of max.)): 49.4% | cytotoxicity at 20 µM (20 μM, read-out: Average LDH release (% of max.)): 53.3% | cytotoxicity at 25 µM (25 μM, EN11 series table, read-out: Average LDH release (% of max.)): 50.8% | cytotoxicity at 25 µM (25 μM, individual replicate values, EN11 series table, read-out: LDH release (% of max.)): 51.9% | cytotoxicity at 50 µM (compound 50 μM, read-out: Average LDH release (% of max.)): 69.6% | cytotoxicity at 25 µM (section 1.2, 25 μM, read-out: Average LDH release (% of max.)): 30% | cytotoxicity at 25 µM (section 1.2, single replicates, 25 μM, read-out: LDH release (% of max.)): 29.6% | cytotoxicity at 18.75 µM (section 1.4, 18.75 μM, read-out: Average LDH release (% of max.)): 71.3% | cytotoxicity at 18.75 µM (section 1.4, single replicates, 18.75 μM, read-out: LDH release (% of max.)): 71.4% | cytotoxicity at 50 µM (single replicates, compound 50 μM, read-out: LDH release (% of max.)): 59.4% | Average (% positive control) (section 1.2, 25 μM, positive control EN22 25 μM): 100.000 % positive control | Average (% positive control) (section 1.4, 18.75 μM, positive control EN22 18.75 μM): 100.000 % positive control
